Among the data in ChEMBL document CHEMBL5257131, “Quantum Annealing Designs Nonhemolytic Antimicrobial Peptides in a Discrete Latent Space” (ACS Med Chem Lett, 2023) are MIC, Activity and hemolysis values, retold here.

Structures are written as SMILES. Peptide text beside a SMILES is read from it.

The subject of one data set is Escherichia coli. The experiment in a line: Antimicrobial activity against Escherichia coli assessed as inhibition of microbial growth incubated for 26 hrs by micro-dilution test. The class given is functional.
Data set [1] can be described thus: Hemolytic activity in rabbit RBC assessed as hemolysis at 100 uM incubated for 6 hrs by Uv-vis spectrophotometric analysis. The conditions noted are these: erythrocyte. The class given is toxicity, cell-based, Oryctolagus cuniculus.
The nature of data set [2]: Hemolytic activity in human erythrocytes assessed as hemolysis at 1 uM incubated for 1 hrs by spectrophotometric analysis relative to control. The conditions noted are these: read-out: Activity. The class given is toxicity, cell-based, Erythrocyte.

Take `CC(C)C[C@H](NC(=O)[C@H](CC(N)=O)NC(=O)[C@H](CCCCN)NC(=O)[C@H](CC(C)C)NC(=O)[C@@H](NC(=O)[C@H](CCCCN)NC(=O)[C@H](Cc1ccccc1)NC(=O)CN)[C@@H](C)O)C(=O)N[C@@H](C)C(=O)N[C@@H](CCCCN)C(=O)N[C@@H](CCCCN)C(=O)N[C@H](C(=O)N[C@@H](C)C(=O)N[C@@H](CCCCN)C(=O)N[C@@H](CCCCN)C(=O)N[C@H](C(=O)N[C@@H](CC(C)C)C(=O)N[C@@H](CCCCN)C(=O)N[C@@H](C)C(=O)N[C@H](C(=O)N[C@@H](CCCNC(=N)N)C(=O)O)C(C)C)C(C)C)C(C)C` (H-GFKTLKNLAKKVAKKVLKAVR-OH): in the data set on Escherichia coli, the MIC (commonly the smallest concentration in the dilution series that meets the test's criterion for growth inhibition) turned out to be 6.25 µg/mL. The Activity entry in data set [1] is “Non-Toxic”.

As for `CC1(C)S[C@@H]2[C@H](NC(=O)[C@H](N)c3ccccc3)C(=O)N2[C@H]1C(=O)O` [AMPICILLIN], the MIC with Escherichia coli came to 6.25 µg/mL.

In the case of `CC[C@H](C)[C@H](NC(=O)CNC(=O)[C@H](CCCCN)NC(=O)[C@H](C)NC(=O)[C@@H](NC(=O)[C@H](CCCCN)NC(=O)[C@H](CCCCN)NC(=O)[C@H](CC(C)C)NC(=O)[C@@H](NC(=O)[C@@H](NC(=O)[C@@H](NC(=O)[C@H](CC(C)C)NC(=O)CN)C(C)C)[C@@H](C)O)C(C)C)C(C)C)C(=O)N[C@H](C(=O)N[C@@H](CCCCN)C(=O)N[C@H](C(=O)N[C@@H](C)C(=O)N[C@@H](CO)C(=O)N[C@@H](CCCCN)C(=O)N[C@H](C(=O)NCC(=O)N[C@@H](CO)C(=O)N[C@@H](CCCCN)C(=O)N[C@@H](CCC(=O)O)C(=O)N[C@@H](CC(C)C)C(=O)O)C(C)C)[C@@H](C)O)C(C)C` (H-GLVTVLKKVAKGIVKTASKVGSKEL-OH), the MIC with Escherichia coli was > 100 µg/mL.

For `CC[C@H](C)[C@H](NC(=O)CN)C(=O)NCC(=O)N[C@@H](C)C(=O)N[C@H](C(=O)N[C@@H](CC(C)C)C(=O)N[C@@H](CCCCN)C(=O)N[C@H](C(=O)N[C@@H](CC(C)C)C(=O)N[C@H](C(=O)N[C@H](C(=O)NCC(=O)N[C@@H](CC(C)C)C(=O)N1CCC[C@H]1C(=O)N[C@@H](C)C(=O)N[C@@H](CC(C)C)C(=O)N[C@H](C(=O)N[C@@H](CO)C(=O)N[C@@H](Cc1c[nH]c2ccccc12)C(=O)N[C@H](C(=O)N[C@@H](CCCCN)C(=O)N[C@@H](CCCNC(=N)N)C(=O)N[C@@H](CCCCN)C(=O)N[C@@H](CCCNC(=N)N)C(=O)N[C@@H](CCC(N)=O)C(=O)N[C@@H](CCC(N)=O)C(N)=O)[C@@H](C)CC)[C@@H](C)CC)[C@@H](C)O)[C@@H](C)O)C(C)C)C(C)C` [MELITTIN], the hemolysis at 1 h, 1 µM in data set [2] came to 90%.
